For this assay, the target named is T1, PDE4B (human recombinant) (Homo sapiens, UniProt Q07343).
T1 construct: made in house
T1 sequence (Q07343 1-564 isoform Q07343-2): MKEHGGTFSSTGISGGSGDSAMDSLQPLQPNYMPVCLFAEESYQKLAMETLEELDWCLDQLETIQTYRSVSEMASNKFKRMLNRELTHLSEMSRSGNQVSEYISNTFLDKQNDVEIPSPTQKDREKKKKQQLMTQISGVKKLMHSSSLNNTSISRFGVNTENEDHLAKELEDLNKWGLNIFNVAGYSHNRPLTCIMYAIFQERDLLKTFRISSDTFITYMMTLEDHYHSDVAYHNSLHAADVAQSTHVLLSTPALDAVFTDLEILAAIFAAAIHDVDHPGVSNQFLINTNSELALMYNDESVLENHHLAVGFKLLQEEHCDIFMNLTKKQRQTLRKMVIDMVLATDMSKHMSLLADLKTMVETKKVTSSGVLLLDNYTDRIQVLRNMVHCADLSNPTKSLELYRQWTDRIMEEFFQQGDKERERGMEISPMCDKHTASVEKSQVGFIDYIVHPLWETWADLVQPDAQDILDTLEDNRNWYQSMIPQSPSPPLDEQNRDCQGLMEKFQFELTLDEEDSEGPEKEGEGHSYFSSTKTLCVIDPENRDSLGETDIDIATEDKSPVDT
The assay can be described thus: Inhibition of PDE4B activity: radioactive SPA or IMAP Fluorescence Polarisation (FP) assay. Particulars: PDE4B inhibitory activity, one reading or average of ca. 2-6 readings, read-out: PDE4B pIC50 (± about 0.5) (converted). The class given is biochemical. Put shortly:
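SPA: yeast-expressed human recombinant PDE4B was preincubated with compound for 10–30 min at ambient temperature in Tris pH 7.5 with MgCl2, EGTA and BSA, then run 1 h with ~10 nM [3H]cAMP at ≤20% hydrolysis; 10 concentrations (1.5 nM–30 μM) gave pIC50. IMAP FP: Tris pH 7.2 with ~40 nM fluorescein-cAMP, under linear enzyme conditions.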
Background: In fluorescence polarisation assays a small probe gives low polarisation when free and higher when bound to something large.
`CCn1ncc2c(NC3CCOCC3)c(C(=O)Nc3ccc(F)cc3)cnc21` [Example 22, 1-Ethyl-N-(4-fluorophenyl)-4-(tetrahydro-2H-pyran-4-ylamino)-1H-pryazolo[3,4-b]pyridine-5-carboxamide]: the IC50 was 12.6 nM. Consider `CCNC(=O)c1cnc2c(cnn2CC)c1NC1CCOCC1` [Example 83, 1-Ethyl-N-ethyl-4-(tetrahydro-2H-pyran-4-ylamino)-1H-pyrazolo[3,4-b]pyridine-5-carboxamide], for which the IC50 is 12.6 to 100 nM. The value for `CCn1ncc2c(NC3CCOCC3)c(C(=O)NCc3ccc(C(F)(F)F)cc3)cnc21` [Example 155, 1-Ethyl-4-(tetrahydro-2H-pyran-4-ylamino)-N-[4-(trifluoromethyl)benzyl]-1H-pyrazolo[3,4-b]pyridine-5-carboxamide] was 0.1 to 6.31 nM.

The values are drawn from patent US20060089375A1, “Pyrazolo[3,4-b] pyridine compounds, and their use as phosphodiesterase inhibitors” (priority 2002, published 2006).
